In PubChem BioAssay (NCI):
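In this assay, cells in 96-well plates receive the compound at five concentrations for 48 hours. Endpoints are linearly interpolated between the surrounding concentrations. TGI: total growth inhibition.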

The compounds below were run on 786-0 renal (assay: NCI-60 cell line screen, 48 h).
For `O=C1C(Br)=C(Br)C(=O)c2ccc(=O)ccc21`, the TGI was 32.7 µM.
`CC(N)/C(N)=N/O` (centres undefined) was tested, and the TGI was over 100 µM.
Compound `CCOC(=O)CCC(NC(=O)C(N)Cc1ccc(N(CCCl)CCCl)cc1)C(=O)OCC` (centres undefined) has a TGI of 2.08 µM.
`COc1ccccc1CC(=O)C(O)(C(F)(F)F)C(F)(F)F` gave a TGI of over 100 µM.
`CCOC(=O)c1ccc(-c2cc(C)no2)[nH]1` was tested, and the TGI was over 100 µM.

What follows are compounds tested on KM12 colon (assay: NCI-60 cell line screen, 48 h).
For `NC(Cc1ccccc1)C(=O)NC(Cc1ccccc1)NC(=O)C(Cc1c[nH]c2ccccc12)C(=O)O` (centres undefined), the TGI was over 100 µM.
`COc1cc(S(=O)(=O)Nc2ccc(-c3csc(N4C(=O)CSC4c4cccc(Oc5ccccc5)c4)n3)cc2)ccc1Cl` (centres undefined) gave a TGI of over 100 µM.
In the case of `O=C1c2cccc3cc([N+](=O)[O-])cc(c23)C(=O)N1Nc1ccc([N+](=O)[O-])cc1[N+](=O)[O-]`, the TGI is reported as 26.3 µM.
For `CC(=O)CC1CCC(=O)/C=C/C(=O)OC(CC(C)=O)CCC(=O)/C=C/C(=O)O1` (centres undefined), the TGI was 42.8 µM.
`O=C1c2sc(-c3ccc(Cl)cc3)cc2-n2cccc21` gave a TGI of over 100 µM.
`O=C1SC(SCc2ccccc2)=NC12CC2c1ccccc1` (centres undefined) gave a TGI of 33.2 µM.
In the case of `N=c1oc2ccccc2cc1C(=O)NC12CC3CC(CC(C3)C1)C2`, the TGI is reported as 52.4 µM.
Compound `O=C1NC2(CCN(CCc3ccccc3)CC2)Oc2ccccc21` has a TGI of over 100 µM.
With `COc1cc2c(/C=C3/C(=O)Nc4cccc(Cl)c43)c(Cl)[nH]c2cc1C` the TGI was 3.72 µM.
`Nc1ncc2c(n1)-c1ccccc1OC2N1CCCCC1` (centres undefined) was tested, and the TGI was over 100 µM.
Compound `Cc1ccc(S(=O)(=O)N2C3C=CC(C3)[C@@H]2C(Cl)(Cl)Cl)cc1` (some centres undefined) has a TGI of 85.5 µM.
Compound `COCOC1/C=C/CCCCC(=O)C(C)C#CC1` (centres undefined) has a TGI of 25.5 µM.
`C[N+]12C=CC=C1C(N1CCCC1)c1scc(-c3ccc(Br)cc3)c12` (centres undefined) showed a TGI of 25.9 µM.
`COC(=O)c1cccc(C)c1C1CN=NC12Cc1cc(C)cc(C)c1C2=O` (centres undefined) was tested, and the TGI was over 100 µM.
`O=C1c2ccccc2-n2nnnc2C2CSCN12` (centres undefined) was tested, and the TGI was over 100 µM.
`CCOC(=O)/C(C#N)=C/c1coc2cc(C)cc(C)c2c1=O` gave a TGI of over 100 µM.
Compound `COc1ccc(C(SCCO)(c2ccccc2)c2ccc(OC)cc2)cc1` has a TGI of 21.5 µM.
For `O=C1C(Br)=C(Br)C(=O)c2ccc(=O)ccc21`, the TGI was over 100 µM.
Work on `CC(N)/C(N)=N/O` (centres undefined) yielded a TGI of over 100 µM.
`CCOC(=O)CCC(NC(=O)C(N)Cc1ccc(N(CCCl)CCCl)cc1)C(=O)OCC` (centres undefined) showed a TGI of 3.43 µM.
`COc1ccccc1CC(=O)C(O)(C(F)(F)F)C(F)(F)F` was tested, and the TGI was over 100 µM.
Compound `CCOC(=O)c1ccc(-c2cc(C)no2)[nH]1` has a TGI of over 100 µM.

The compounds below were run on IGROV1 ovarian (assay: NCI-60 cell line screen, 48 h).
Work on `NC(Cc1ccccc1)C(=O)NC(Cc1ccccc1)NC(=O)C(Cc1c[nH]c2ccccc12)C(=O)O` (centres undefined) yielded a TGI of over 100 µM.
In the case of `COc1cc(S(=O)(=O)Nc2ccc(-c3csc(N4C(=O)CSC4c4cccc(Oc5ccccc5)c4)n3)cc2)ccc1Cl` (centres undefined), the TGI is reported as over 100 µM.
Compound `O=C1c2cccc3cc([N+](=O)[O-])cc(c23)C(=O)N1Nc1ccc([N+](=O)[O-])cc1[N+](=O)[O-]` has a TGI of 25.5 µM.
For `CC(=O)CC1CCC(=O)/C=C/C(=O)OC(CC(C)=O)CCC(=O)/C=C/C(=O)O1` (centres undefined), the TGI was 32.1 µM.
`O=C1c2sc(-c3ccc(Cl)cc3)cc2-n2cccc21` showed a TGI of over 100 µM.
`O=C1SC(SCc2ccccc2)=NC12CC2c1ccccc1` (centres undefined) showed a TGI of 52.6 µM.
`N=c1oc2ccccc2cc1C(=O)NC12CC3CC(CC(C3)C1)C2` was tested, and the TGI was over 65.6 µM.
`O=C1NC2(CCN(CCc3ccccc3)CC2)Oc2ccccc21` gave a TGI of over 100 µM.
With `COc1cc2c(/C=C3/C(=O)Nc4cccc(Cl)c43)c(Cl)[nH]c2cc1C` the TGI was 11.8 µM.
In the case of `Nc1ncc2c(n1)-c1ccccc1OC2N1CCCCC1` (centres undefined), the TGI is reported as over 100 µM.
For `Cc1ccc(S(=O)(=O)N2C3C=CC(C3)[C@@H]2C(Cl)(Cl)Cl)cc1` (some centres undefined), the TGI was over 71 µM.
For `COCOC1/C=C/CCCCC(=O)C(C)C#CC1` (centres undefined), the TGI was 18.1 µM.
In the case of `C[N+]12C=CC=C1C(N1CCCC1)c1scc(-c3ccc(Br)cc3)c12` (centres undefined), the TGI is reported as 20.8 µM.
`COC(=O)c1cccc(C)c1C1CN=NC12Cc1cc(C)cc(C)c1C2=O` (centres undefined) gave a TGI of over 100 µM.
Work on `O=C1c2ccccc2-n2nnnc2C2CSCN12` (centres undefined) yielded a TGI of over 100 µM.
With `CCOC(=O)/C(C#N)=C/c1coc2cc(C)cc(C)c2c1=O` the TGI was over 100 µM.
With `COc1ccc(C(SCCO)(c2ccccc2)c2ccc(OC)cc2)cc1` the TGI was 46.2 µM.
Compound `O=C1C(Br)=C(Br)C(=O)c2ccc(=O)ccc21` has a TGI of over 66.1 µM.
`CC(N)/C(N)=N/O` (centres undefined) was tested, and the TGI was over 100 µM.
`CCOC(=O)CCC(NC(=O)C(N)Cc1ccc(N(CCCl)CCCl)cc1)C(=O)OCC` (centres undefined) showed a TGI of 3.93 µM.
Work on `COc1ccccc1CC(=O)C(O)(C(F)(F)F)C(F)(F)F` yielded a TGI of over 100 µM.
`CCOC(=O)c1ccc(-c2cc(C)no2)[nH]1` was tested, and the TGI was over 100 µM.

What follows are compounds tested on HT29 colon (assay: NCI-60 cell line screen, 48 h).
With `NC(Cc1ccccc1)C(=O)NC(Cc1ccccc1)NC(=O)C(Cc1c[nH]c2ccccc12)C(=O)O` (centres undefined) the TGI was over 100 µM.
In the case of `COc1cc(S(=O)(=O)Nc2ccc(-c3csc(N4C(=O)CSC4c4cccc(Oc5ccccc5)c4)n3)cc2)ccc1Cl` (centres undefined), the TGI is reported as over 100 µM.
With `O=C1c2cccc3cc([N+](=O)[O-])cc(c23)C(=O)N1Nc1ccc([N+](=O)[O-])cc1[N+](=O)[O-]` the TGI was 24.2 µM.
`CC(=O)CC1CCC(=O)/C=C/C(=O)OC(CC(C)=O)CCC(=O)/C=C/C(=O)O1` (centres undefined) showed a TGI of 31.6 µM.
`O=C1c2sc(-c3ccc(Cl)cc3)cc2-n2cccc21` was tested, and the TGI was over 100 µM.
With `O=C1SC(SCc2ccccc2)=NC12CC2c1ccccc1` (centres undefined) the TGI was 54 µM.
`N=c1oc2ccccc2cc1C(=O)NC12CC3CC(CC(C3)C1)C2` was tested, and the TGI was over 100 µM.
Compound `O=C1NC2(CCN(CCc3ccccc3)CC2)Oc2ccccc21` has a TGI of over 100 µM.
Work on `COc1cc2c(/C=C3/C(=O)Nc4cccc(Cl)c43)c(Cl)[nH]c2cc1C` yielded a TGI of 3.96 µM.
Work on `Nc1ncc2c(n1)-c1ccccc1OC2N1CCCCC1` (centres undefined) yielded a TGI of over 100 µM.
`Cc1ccc(S(=O)(=O)N2C3C=CC(C3)[C@@H]2C(Cl)(Cl)Cl)cc1` (some centres undefined) was tested, and the TGI was 31.8 µM.
`COCOC1/C=C/CCCCC(=O)C(C)C#CC1` (centres undefined) showed a TGI of 8.28 µM.
Compound `C[N+]12C=CC=C1C(N1CCCC1)c1scc(-c3ccc(Br)cc3)c12` (centres undefined) has a TGI of over 100 µM.
With `COC(=O)c1cccc(C)c1C1CN=NC12Cc1cc(C)cc(C)c1C2=O` (centres undefined) the TGI was 86.7 µM.
`O=C1c2ccccc2-n2nnnc2C2CSCN12` (centres undefined) was tested, and the TGI was over 100 µM.
For `CCOC(=O)/C(C#N)=C/c1coc2cc(C)cc(C)c2c1=O`, the TGI was over 100 µM.
Work on `COc1ccc(C(SCCO)(c2ccccc2)c2ccc(OC)cc2)cc1` yielded a TGI of 29.1 µM.
Work on `O=C1C(Br)=C(Br)C(=O)c2ccc(=O)ccc21` yielded a TGI of over 75 µM.
Compound `CC(N)/C(N)=N/O` (centres undefined) has a TGI of over 100 µM.
With `CCOC(=O)CCC(NC(=O)C(N)Cc1ccc(N(CCCl)CCCl)cc1)C(=O)OCC` (centres undefined) the TGI was 3.47 µM.
With `COc1ccccc1CC(=O)C(O)(C(F)(F)F)C(F)(F)F` the TGI was over 100 µM.
`CCOC(=O)c1ccc(-c2cc(C)no2)[nH]1` showed a TGI of over 100 µM.

These compounds were tested on T-47D breast (assay: NCI-60 cell line screen, 48 h).
Compound `NC(Cc1ccccc1)C(=O)NC(Cc1ccccc1)NC(=O)C(Cc1c[nH]c2ccccc12)C(=O)O` (centres undefined) has a TGI of over 100 µM.
In the case of `COc1cc(S(=O)(=O)Nc2ccc(-c3csc(N4C(=O)CSC4c4cccc(Oc5ccccc5)c4)n3)cc2)ccc1Cl` (centres undefined), the TGI is reported as 33.9 µM.
Compound `O=C1c2cccc3cc([N+](=O)[O-])cc(c23)C(=O)N1Nc1ccc([N+](=O)[O-])cc1[N+](=O)[O-]` has a TGI of over 31.6 µM.
Compound `CC(=O)CC1CCC(=O)/C=C/C(=O)OC(CC(C)=O)CCC(=O)/C=C/C(=O)O1` (centres undefined) has a TGI of 6.79 µM.
Compound `O=C1c2sc(-c3ccc(Cl)cc3)cc2-n2cccc21` has a TGI of over 100 µM.
In the case of `O=C1SC(SCc2ccccc2)=NC12CC2c1ccccc1` (centres undefined), the TGI is reported as over 100 µM.
For `N=c1oc2ccccc2cc1C(=O)NC12CC3CC(CC(C3)C1)C2`, the TGI was 22.7 µM.
`O=C1NC2(CCN(CCc3ccccc3)CC2)Oc2ccccc21` was tested, and the TGI was over 100 µM.
`COc1cc2c(/C=C3/C(=O)Nc4cccc(Cl)c43)c(Cl)[nH]c2cc1C` showed a TGI of 5.48 µM.
For `Nc1ncc2c(n1)-c1ccccc1OC2N1CCCCC1` (centres undefined), the TGI was over 100 µM.
`Cc1ccc(S(=O)(=O)N2C3C=CC(C3)[C@@H]2C(Cl)(Cl)Cl)cc1` (some centres undefined) was tested, and the TGI was over 100 µM.
In the case of `COCOC1/C=C/CCCCC(=O)C(C)C#CC1` (centres undefined), the TGI is reported as 6.39 µM.
With `C[N+]12C=CC=C1C(N1CCCC1)c1scc(-c3ccc(Br)cc3)c12` (centres undefined) the TGI was 61.8 µM.
